In patent US12180193B2, “Accelerating fibrosarcoma protein degrading compounds and associated methods of use” (Arvinas Operations, Inc., priority 2020, dated 2024):
Where two headings read alike, the source gives them in different places.

Columns and labels:
BRAF V600E = target: T1, BRAF V600E (Homo sapiens, UniProt P15056, V600E); experiment: Cellular assay of target protein degradation, T-Rex 293 cells stably transfected with HA-BRAF_V600E (HA immunofluorescence, high content imaging); type: cell-based
T1 construct: expressed in transfected cells
Method in brief: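 Degradation of the HA-tagged construct is measured after 24 h treatment at 37 °C across 1 μM to 0.1 nM in 0.1% DMSO, in doxycycline-induced (1 ng/mL) cells. DC50 and Dmax come from HA fluorescence imaging.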

BRAF G466V = target: T2, BRAF G466V (Homo sapiens, UniProt P15056, G466V); experiment: Cellular assay of target protein degradation, T-Rex 293 cells stably transfected with HA-BRAF G466V (HA immunofluorescence, high content imaging); type: cell-based
T2 construct: expressed in transfected cells
Method in brief: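 Dose range spans 30 nM to 3 pM (0.1% DMSO) over 24 hours at 37° C, in cells induced with 0.75 ng/mL doxycycline. Fixed cells are probed with anti-HA antibody overnight at 4° C, then imaged; half-maximal degradation and maximum degradation are derived.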

[1] = half maximal degradation, T-Rex 293 HA-BRAF V600E; read-out: BRaf V600E DC50
[2] = maximum degradation observed, T-Rex 293 HA-BRAF V600E
[3] = half maximal degradation, T-Rex 293 HA-BRAF G466V; read-out: BRaf G466V DC50
[4] = maximum degradation observed, T-Rex 293 HA-BRAF G466V
[5] = read-out: BRaf V600E DC50; half maximal degradation, T-Rex 293 HA-BRAF V600E
[6] = read-out: BRaf G466V DC50; half maximal degradation, T-Rex 293 HA-BRAF G466V

T1 sequence (P15056 whole entry V600E): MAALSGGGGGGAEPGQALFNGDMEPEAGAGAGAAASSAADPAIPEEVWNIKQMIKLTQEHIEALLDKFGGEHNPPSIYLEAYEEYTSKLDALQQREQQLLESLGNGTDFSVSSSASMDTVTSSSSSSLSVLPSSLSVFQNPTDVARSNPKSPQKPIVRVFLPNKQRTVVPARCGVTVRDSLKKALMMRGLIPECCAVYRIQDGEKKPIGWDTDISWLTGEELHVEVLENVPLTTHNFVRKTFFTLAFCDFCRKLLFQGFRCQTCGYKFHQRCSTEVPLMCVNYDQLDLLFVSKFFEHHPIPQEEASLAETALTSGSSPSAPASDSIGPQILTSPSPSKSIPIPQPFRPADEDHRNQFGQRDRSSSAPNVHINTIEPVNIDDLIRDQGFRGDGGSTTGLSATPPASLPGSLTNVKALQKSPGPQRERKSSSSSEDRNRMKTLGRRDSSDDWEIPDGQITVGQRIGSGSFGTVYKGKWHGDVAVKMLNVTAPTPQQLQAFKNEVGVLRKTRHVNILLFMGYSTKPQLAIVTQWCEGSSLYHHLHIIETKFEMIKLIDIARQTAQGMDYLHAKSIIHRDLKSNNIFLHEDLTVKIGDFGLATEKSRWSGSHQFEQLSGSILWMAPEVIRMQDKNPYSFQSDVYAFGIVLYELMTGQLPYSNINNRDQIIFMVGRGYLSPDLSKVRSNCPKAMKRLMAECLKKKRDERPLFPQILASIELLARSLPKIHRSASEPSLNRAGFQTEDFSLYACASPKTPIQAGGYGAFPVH
T2 sequence (P15056 whole entry G466V): as the sequence (P15056 whole entry V600E) above, with G466V, E600V counted along it

| DC50 (BRAF V600E; [1]) [nM] | Dmax (BRAF V600E; [2]) [%] | DC50 (BRAF G466V; [3]) [nM] | Dmax (BRAF G466V; [4]) [%] | SMILES | DC50 (BRAF V600E; [5]) [nM] | DC50 (BRAF G466V; [6]) [nM] |
| --- | --- | --- | --- | --- | --- | --- |
| 5 to 50 | 35 to 70 | 1 to 10 | > 70 | O=C1CCC(N2Cc3cc(N4CCC(CN5CC[C@@H]6[C@H](C5)CN6c5ccc(-c6cnc7[nH]cc(C(=O)c8c(F)ccc(NS(=O)(=O)N9CC[C@@H](F)C9)c8F)c7c6)cc5)CC4)ccc3C2=O)C(=O)N1 (stereo partly drawn) [Compound 311, (3R)-N-[3-(5-{4-[(1R,6R)-3-({1-[2-(2,6-dioxopiperidin-3-yl)-1-oxo-2,3-dihydro-1H-isoindol-5-yl]piperidin-4-yl}methyl)-3,7-diazabicyclo[4.2.0]octan-7-yl]phenyl}-1H-pyrrolo[2,3-b]pyridine-3-carbonyl)-2,4-difluorophenyl]-3-fluoropyrrolidine-1-sulfonamide] |  |  |
| 50 to 500 | > 70 | 1 to 10 | > 70 | O=C1CCC(N2Cc3cc(C4CCN(C[C@@H]5CCN(c6ccc(-c7cnc8[nH]cc(C(=O)c9c(F)ccc(NS(=O)(=O)N%10CC[C@@H](F)C%10)c9F)c8c7)cc6)C(=O)C5)CC4)ccc3C2=O)C(=O)N1 (stereo partly drawn) [Compound 312, (3R)-N-[3-(5-{4-[(4R)-4-({4-[2-(2,6-dioxopiperidin-3-yl)-1-oxo-2,3-dihydro-1H-isoindol-5-yl]piperidin-1-yl}methyl)-2-oxopiperidin-1-yl]phenyl}-1H-pyrrolo[2,3-b]pyridine-3-carbonyl)-2,4-difluorophenyl]-3-fluoropyrrolidine-1-sulfonamide] |  |  |
| > 500 |  | > 30 |  | O=C1CCC(N2Cc3cc(N4CCC(CN5CCN(c6ccc(-c7cnc8[nH]cc(C(=O)c9c(F)ccc(NS(=O)(=O)N%10CC[C@@H](F)C%10)c9F)c8c7)cc6)CC(F)(F)C5)CC4)ccc3C2=O)C(=O)N1 (stereo partly drawn) [Compound 315, (3R)-N-{3-(5-{4-[4-({1-[2-(2,6-dioxopiperidin-3-yl)-1-oxo-2,3-dihydro-1H-isoindol-5-yl]piperidin-4-yl}methyl)-6,6-difluoro-1,4-diazepan-1-yl]phenyl}-1H-pyrrolo[2,3-b]pyridine-3-carbonyl)-2,4-difluorophenyl]-3-fluoropyrrolidine-1-sulfonamide] |  |  |
| 50 to 500 | < 35 | 1 to 10 | > 70 | O=C1CCC(N2Cc3cc(N4CCC(CN5CC(C6(c7ccc(-c8cnc9[nH]cc(C(=O)c%10c(F)ccc(NS(=O)(=O)N%11CC[C@@H](F)C%11)c%10F)c9c8)cc7)CC6)C5)CC4)ccc3C2=O)C(=O)N1 (stereo partly drawn) [Compound 316, (3R)-N-{3-[5-(4-{1-[1-({1-[2-(2,6-dioxopiperidin-3-yl)-1-oxo-2,3-dihydro-1H-isoindol-5-yl]piperidin-4-yl}methyl)azetidin-3-yl]cyclopropyl}phenyl)-1H-pyrrolo[2,3-b]pyridine-3-carbonyl]-2,4-difluorophenyl}-3-fluoropyrrolidine-1-sulfonamide] |  |  |
| 50 to 500 | 35 to 70 | 1 to 10 | > 70 | O=C1CCC(N2Cc3cc(N4CCN(CCCCc5ccc(-c6cnc7[nH]cc(C(=O)c8c(F)ccc(NS(=O)(=O)N9CC[C@@H](F)C9)c8F)c7c6)cc5)CC4)ccc3C2=O)C(=O)N1 (stereo partly drawn) [Compound 317, (3R)-N-(3-{5-[4-(4-{4-[2-(2,6-dioxopiperidin-3-yl)-1-oxo-2,3-dihydro-1H-isoindol-5-yl]piperazin-1-yl}butyl)phenyl]-1H-pyrrolo[2,3-b]pyridine-3-carbonyl}-2,4-difluorophenyl)-3-fluoropyrrolidine-1-sulfonamide] |  |  |
| 50 to 500 | 35 to 70 | 10 to 30 | 35 to 70 | O=C1CCC(N2Cc3cc(N4CCN(CCCCCc5ccc(-c6cnc7[nH]cc(C(=O)c8c(F)ccc(NS(=O)(=O)N9CC[C@@H](F)C9)c8F)c7c6)cc5)CC4)ccc3C2=O)C(=O)N1 (stereo partly drawn) [Compound 318, (3R)-N-(3-{5-[4-(5-{4-[2-(2,6-dioxopiperidin-3-yl)-1-oxo-2,3-dihydro-1H-isoindol-5-yl]piperazin-1-yl}penyl)phenyl]-1H-pyrrolo[2,3-b]pyridine-3-carbonyl}-2,4-difluorophenyl)-3-fluoropyrrolidine-1-sulfonamide] |  |  |
| 50 to 500 | 35 to 70 | 1 to 10 | 35 to 70 | O=C1CCC(N2Cc3cc(N4CC(CN5CCN(C6(c7ncc(-c8cnc9[nH]cc(C(=O)c%10c(F)ccc(NS(=O)(=O)N%11CC[C@@H](F)C%11)c%10F)c9c8)cn7)CC6)CC5)C4)ccc3C2=O)C(=O)N1 (stereo partly drawn) [Compound 320, (3R)-N-{3-[5-(2-{1-[4-({1-[2-(2,6-dioxopiperidin-3-yl)-1-oxo-2,3-dihydro-1H-isoindol-5-yl]azetidin-3-yl}methyl)piperazin-1-yl]cyclopropyl}pyrimidin-5-yl)-1H-pyrrolo[2,3-b]pyridine-3-carbonyl]-2,4-difluorophenyl}-3-fluoropyrrolidine-1-sulfonamide] |  |  |
| 5 to 50 | 35 to 70 | 1 to 10 | > 70 | O=C1CCC(N2Cc3cc(CCCCN4CC5(C4)CN(c4ccc(-c6cnc7[nH]cc(C(=O)c8c(F)ccc(NS(=O)(=O)N9CC[C@@H](F)C9)c8F)c7c6)cc4)C5)ccc3C2=O)C(=O)N1 (stereo partly drawn) [Compound 321, (3R)-N-(3-{5-[4-(6-{4-[2-(2,6-dioxopiperidin-3-yl)-1-oxo-2,3-dihydro-1H-isoindol-5-yl]butyl}-2,6-diazaspiro[3.3]heptan-2-yl)phenyl]-1H-pyrrolo[2,3-b]pyridine-3-carbonyl}-2,4-difluorophenyl)-3-fluoropyrrolidine-1-sulfonamide] |  |  |
| 50 to 500 | < 35 | 10 to 30 | 35 to 70 | O=C1CCC(N2C(=O)c3ccc(C4CCN(CC5CCN(c6ccc(-c7cnc8[nH]cc(C(=O)c9c(F)ccc(NS(=O)(=O)N%10CC[C@@H](F)C%10)c9F)c8c7)cc6)CC5)CC4)cc3C2=O)C(=O)N1 (stereo partly drawn) [Compound 323, (3R)-N-[3-(5-{4-[4-({4-[2-(2,6-dioxopiperidin-3-yl)-1,3-dioxo-2,3-dihydro-1H-isoindol-5-yl]piperidin-1-yl}methyl)piperidin-1-yl]phenyl}-1H-pyrrolo[2,3-b]pyridine-3-carbonyl)-2,4-difluorophenyl]-3-fluoropyrrolidine-1-sulfonamide] |  |  |
| 5 to 50 | < 35 | 1 to 10 | > 70 | O=C1CCC(N2Cc3cc(N4CCCN(CC5CCN(c6ccc(-c7cnc8[nH]cc(C(=O)c9c(F)ccc(NS(=O)(=O)N%10CC[C@@H](F)C%10)c9F)c8c7)cc6)CC5)CC4)ccc3C2=O)C(=O)N1 (stereo partly drawn) [Compound 324, (3R)-N-[3-(5-{4-[4-({4-[2-(2,6-dioxopiperidin-3-yl)-1-oxo-2,3-dihyrdo-1H-isoindol-5-yl]-1,4-diazepan-1-yl}methyl)piperidin-1-yl]phenyl}-1H-pyrrolo[2,3-b]pyridine-3-carbonyl)-2,4-difluorophenyl]-3-fluoropyrrolidine-1-sulfonamide] |  |  |
| 5 to 50 | 35 to 70 | 1 to 10 | > 70 | O=C1CCC(N2Cc3cc(CCCCN4CCN(c5ccc(-c6cnc7[nH]cc(C(=O)c8c(F)ccc(NS(=O)(=O)N9CC[C@@H](F)C9)c8F)c7c6)cc5)CC4)ccc3C2=O)C(=O)N1 (stereo partly drawn) [Compound 325, (3R)-N-(3-{5-[4-(4-{4-[2-(2,6-dioxopiperidin-3-yl)-1-oxo-2,3-dihydro-1H-isoindol-5-yl]butyl}piperazin-1-yl)phenyl]-1H-pyrrolo[2,3-b]pyridine-3-carbonyl}-2,4-difluorophenyl)-3-fluoropyrrolidine-1-sulfonamide] |  |  |
| 5 to 50 | 35 to 70 | < 1 | > 70 | O=C1CCC(N2Cc3cc(C4CCN(C5CCN(c6ccc(-c7cnc8[nH]cc(C(=O)c9c(F)ccc(NS(=O)(=O)N%10CC[C@@H](F)C%10)c9F)c8c7)cc6)CC5)CC4)ccc3C2=O)C(=O)N1 (stereo partly drawn) [Compound 326, (3R)-N-{3-[5-(4-{4-[2-(2,6-dioxopiperidin-3-yl)-1-oxo-2,3-dihydro-1H-isoindol-5-yl]-[1,4′-bipiperidin]-1′-yl}phenyl)-1H-pyrrolo[2,3-b]pyridine-3-carbonyl]-2,4-difluorophenyl}-3-fluoropyrrolidine-1-sulfonamide] |  |  |

| SMILES | DC50 (BRAF V600E; [1]) [nM] | Dmax (BRAF V600E; [2]) [%] | DC50 (BRAF G466V; [3]) [nM] | Dmax (BRAF G466V; [4]) [%] | DC50 (BRAF V600E; [5]) [nM] | DC50 (BRAF G466V; [6]) [nM] |
| --- | --- | --- | --- | --- | --- | --- |
| O=C1CCC(N2Cc3cc(C4CCN(CC5CC6(C5)CN(c5ccc(-c7cnc8[nH]cc(C(=O)c9c(F)ccc(NS(=O)(=O)N%10CC[C@@H](F)C%10)c9F)c8c7)cc5F)C6)CC4)ccc3C2=O)C(=O)N1 (stereo partly drawn) [Compound 319, (3R)-N-[3-(5-{4-[6-({4-[2-(2,6-dioxopiperidin-3-yl)-1-oxo-2,3-dihydro-1H-isoindol-5-yl]piperidin-1-yl}methyl)-2-azaspiro[3.3]heptan-2-yl]-3-fluorophenyl}-1H-pyrrolo[2,3-b]pyridine-3-carbonyl)-2,4-difluorophenyl]-3-fluoropyrrolidine-1-sulfonamide] |  | 35 to 70 |  | > 70 | 5 to 50 | 1 to 10 |
| O=C1CCC(N2Cc3cc(N4CCC(CN5CCCN(c6ccc(-c7cnc8[nH]cc(C(=O)c9c(F)ccc(NS(=O)(=O)N%10CC[C@@H](F)C%10)c9F)c8c7)cc6)CC5)CC4)ccc3C2=O)C(=O)N1 (stereo partly drawn) [Compound 322, (3R)-N-[3-(5-{4-[4-({1-[2-(2,6-dioxopiperidin-3-yl)-1-oxo-2,3-dihydro-1H-isoindol-5-yl]piperidin-4-yl}methyl)-1,4-diazepan-1-yl]phenyl}-1H-pyrrolo[2,3-b]pyridine-3-carbonyl)-2,4-difluorophenyl]-3-fluoropyrrolidine-1-sulfonamide] |  | < 35 |  | 35 to 70 | 50 to 500 | 1 to 10 |
